Measured values published in patent US20040254221A1, “Novel Nitrogenous Compound and use thereof” (priority 2001, published 2004).

Legend:
receptors CXCR4 = biological target: T1, receptors CXCR4 (Homo sapiens, UniProt P61073); assay: Inhibition of 125I-SDF-1 binding to CXCR4 on MT4 cells; conditions: 125I-SDF-1 ligand, 2 hours under ice-cooling, read-out: Inhibition rate (binding-inhibition %)
T1 construct: endogenous in cells; host or cells: MT4 cells
Procedure: MT4 cells (5×10^6/0.2 ml/well) were cultured on a 24-well microtiter plate. After the cells were incubated for 24 hours at 37° C. in a carbon dioxide gas incubator, a culture medium was replaced with a buffer solution (0.1% BSA-containing RPMI-1640). Together with a ligand (^125I-SDF-1″, specific activity: 2,200 Ci/mmol; manufactured by Daiichi Chemicals Co., Ltd. (Tokyo)), test materials of various concentrations were subjected to a binding reaction for 2 hours under ice-cooling.

[1] = test system: HIV-1IIIB infected MT-4 cells; assay: Antiviral activity in HIV-1IIIB infected MT-4 cells (MTT method); format: cell-based; conditions: Human immunodeficiency virus 1, MT4, 120 h, MOI 0.01, MT-4 cells, 5 days, read-out: EC50 (concentration required for inhibition of cell disorder due to HIV infection by 50%)
Procedure: Immediately after infection, HIV-1IIIB infected MT-4 cells (3.0×10^4/well, MOI (Multiplicity of infection): 0.01) were added to a 96-well microtiter plate together with the test compounds having different concentrations. The cells were cultured in a carbon dioxide incubator at 37° C. for 5 days, and the number of living cells was measured in accordance with the MTT (tetrazolium) method ([…] et al., J. of Virol. Method, 20, 309-321 (1988)). The antiviral activity is represented the concentration required for inhibition of cell disorder due to HIV infection by 50% (EC50: 50% Effective Concentration), and expressed using μM, and the results are shown in Table 2.

ICR mice (male) = conditions: mouse, in vivo, 4 days
Procedure: The acute toxicity of the aforementioned compound was examined. Specifically, 7-week-old ICR mice (male) were divided into several groups (4 or 5 mice in each group), and the mice were bred for 1 week for habituation. Subsequently, each of the compounds of Examples was dissolved in distilled water or physiological saline, and the solution was administered to the mice via tail vein (dose: 15 mg/kg) twice a day for 4 days. On the fifth day, dead mice were counted.

T1 sequence (P61073 whole entry): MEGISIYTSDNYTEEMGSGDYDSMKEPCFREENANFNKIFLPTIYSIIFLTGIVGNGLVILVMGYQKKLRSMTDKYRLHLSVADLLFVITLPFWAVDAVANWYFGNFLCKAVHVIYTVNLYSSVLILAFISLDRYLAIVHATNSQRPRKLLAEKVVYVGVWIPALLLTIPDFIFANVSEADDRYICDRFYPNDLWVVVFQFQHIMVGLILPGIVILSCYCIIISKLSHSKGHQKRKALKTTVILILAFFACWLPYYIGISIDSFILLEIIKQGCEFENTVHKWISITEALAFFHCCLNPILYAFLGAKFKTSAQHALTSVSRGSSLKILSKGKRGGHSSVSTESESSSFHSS

Cc1ccccc1CNCCC[C@H](NC(=O)c1ccc(CNCc2ncc[nH]2)cc1)C(=O)N[C@@H](C)c1cccc2ccccc12 [Compound No. 1, N-[(S)-1-(1-naphthyl)ethyl]-5-(2-methylbenzyl)amino-2-(S)-[4-[N-(imidazol-2-ylmethyl)aminomethyl]benzoyl]aminopentanoylamide]
inhibition at 0.1 µM (receptors CXCR4): 100%
EC50 [1]: 58 nM

COc1ccccc1CNCCC[C@H](NC(=O)c1ccc(CNCc2ncc[nH]2)cc1)C(=O)N[C@@H](C)c1cccc2ccccc12 [Compound No. 2, N-[(S)-1-(1-naphthyl)ethyl]-5-(2-methoxybenzyl)amino-2-(S)-[4-[N-(imidazol-2-ylmethyl)aminomethyl]benzoyl]aminopentanoylamide]
inhibition at 0.1 µM (receptors CXCR4): 97.6%
EC50 [1]: 99.6 nM

Cc1cccnc1CNCCC[C@H](NC(=O)c1ccc(CNCc2ncc[nH]2)cc1)C(=O)N[C@@H](C)c1cccc2ccccc12 [Compound No. 9, N-[(S)-1-(1-naphthyl)ethyl]-5-(3-methylpyridin-2-yl)methylamino-2-(S)-[4-[N-(imidazol-2-ylmethyl)aminomethyl]benzoyl]aminopentanoylamide]
EC50 [1]: 55.3 nM
Dead mice/test mice (ICR mice (male)): 0/5

CCc1ccccc1CNCCC[C@H](NC(=O)c1ccc(CNCc2ncc[nH]2)cc1)C(=O)N[C@@H](C)c1cccc2ccccc12 [Compound No. 22, N-[(S)-1-(1-naphthyl)ethyl]-5-(2-ethylbenzyl)amino-2-(S)-[4-[N-(imidazol-2-ylmethyl)aminomethyl]benzoyl]aminopentanoylamide]
EC50 [1]: 30 nM

C[C@H](NC(=O)[C@H](CCCNC1CCCCC1)NC(=O)c1ccc(CNCc2ncc[nH]2)cc1)c1cccc2ccccc12 [Compound No. 27, N-[(S)-1-(1-naphthyl)ethyl]-5-cyclohexylamino-2-(S)-[4-[N-(imidazol-2-ylmethyl)aminomethyl]benzoyl]aminopentanoylamide]
inhibition at 0.1 µM (receptors CXCR4): 97%

C[C@H](NC(=O)[C@H](CCCNC1CCCc2ccccc21)NC(=O)c1ccc(CNCc2ncc[nH]2)cc1)c1cccc2ccccc12 (stereo partly drawn) [Compound No. 28, N-[(S)-1-(1-naphthyl)ethyl]-5-(1,2,3,4-tetrahydronaphthalen-1-yl)amino-2-(S)-[4-[N-(imidazol-2-ylmethyl)aminomethyl]benzoyl]aminopentanoylamide]
inhibition at 0.1 µM (receptors CXCR4): 100%

C[C@H](NC(=O)[C@H](CCCNC1CCc2ccccc21)NC(=O)c1ccc(CNCc2ncc[nH]2)cc1)c1cccc2ccccc12 (stereo partly drawn) [Compound No. 29, N-[(S)-1-(1-naphthyl)ethyl]-5-(indan-1-yl)amino-2-(S)-[4-[N-(imidazol-2-ylmethyl)aminomethyl]benzoyl]aminopentanoylamide]
inhibition at 0.1 µM (receptors CXCR4): 100%
Dead mice/test mice (ICR mice (male)): 0/5

CC(C)CN(CCC[C@H](NC(=O)c1ccc(CNCc2ncc[nH]2)cc1)C(=O)N[C@@H](C)c1cccc2ccccc12)CC(C)C [Compound No. 33, N-[(S)-1-(1-naphthyl)ethyl]-5-diisobutylamino-2-(S)-[4-[N-(imidazol-2-ylmethyl)aminomethyl]benzoyl]aminopentanoylamide]
inhibition at 0.1 µM (receptors CXCR4): 100%
EC50 [1]: 6.7 nM
Dead mice/test mice (ICR mice (male)): 0/5

CCCN(CCC)CCC[C@H](NC(=O)c1ccc(CNCc2ncc[nH]2)cc1)C(=O)N[C@@H](C)c1cccc2ccccc12 [Compound No. 34, N-[(S)-1-(1-naphthyl)ethyl]-5-di-n-propylamino-2-(S)-[4-[N-(imidazol-2-ylmethyl)aminomethyl]benzoyl]aminopentanoylamide]
inhibition at 0.1 µM (receptors CXCR4): 98%
EC50 [1]: 15 nM
Dead mice/test mice (ICR mice (male)): 0/5

CCCN(CCC[C@H](NC(=O)c1ccc(CNCc2ncc[nH]2)cc1)C(=O)N[C@@H](C)c1cccc2ccccc12)CC(C)C [Compound No. 39, N-[(S)-1-(1-naphthyl)ethyl]-5-(N-n-propyl-isobutylamino)-2-(S)-[4-[N-(imidazol-2-ylmethyl)aminomethyl]benzoyl]aminopentanoylamide]
EC50 [1]: 14.5 nM
Dead mice/test mice (ICR mice (male)): 0/5

C[C@H](NC(=O)[C@H](CCCN(C)C1CCCCC1)NC(=O)c1ccc(CNCc2ncc[nH]2)cc1)c1cccc2ccccc12 [Compound No. 42, N-[(S)-1-(1-naphthyl)ethyl]-5-(N-methyl-cyclohexylamino)-2-(S)-[4-[N-(imidazol-2-ylmethyl)aminomethyl]benzoyl]aminopentanoylamide]
EC50 [1]: 14.5 nM
Dead mice/test mice (ICR mice (male)): 0/5

C[C@H](NC(=O)[C@H](CCCN1CCCCCC1)NC(=O)c1ccc(CNCc2ncc[nH]2)cc1)c1cccc2ccccc12 [Compound No. 55, N-[(S)-1-(1-naphthyl)ethyl]-5-(hexamethyleneimin-1-yl)-2-(S)-[4-[N-(imidazol-2-ylmethyl)aminomethyl]benzoyl]aminopentanoylamide]
inhibition at 0.1 µM (receptors CXCR4): 89.3%
EC50 [1]: 29 nM
Dead mice/test mice (ICR mice (male)): 0/5

CC(C)CN(CCO)CCC[C@H](NC(=O)c1ccc(CNCc2ncc[nH]2)cc1)C(=O)N[C@@H](C)c1cccc2ccccc12 [Compound No. 66, N-[(S)-1-(1-naphthyl)ethyl]-5-(N-isobutyl-(2-hydroxyethyl)amino)-2-(S)-[4-[N-(imidazol-2-ylmethyl)aminomethyl]benzoyl]aminopentanoylamide]
inhibition at 0.1 µM (receptors CXCR4): 90.6%
EC50 [1]: 20 nM
Dead mice/test mice (ICR mice (male)): 0/5

C[C@H](NC(=O)[C@H](CCCSC(=N)N)NC(=O)c1ccc(CNCc2ccccn2)cc1)c1cccc2ccccc12 [Compound No. 73, N-[(S)-1-(1-naphthyl)ethyl]-5-sulfinamidino-2-(S)-[4-[N-(pyridin-2-ylmethyl)aminomethyl]benzoyl]aminopentanoylamide]
inhibition at 0.1 µM (receptors CXCR4): 93.5%
EC50 [1]: 69.1 nM
Dead mice/test mice (ICR mice (male)): 0/5

C/N=C(\N)SCCC[C@H](NC(=O)c1ccc(CNCc2ccccn2)cc1)C(=O)N[C@@H](C)c1cccc2ccccc12 [Compound No. 74, N-[(S)-1-(1-naphthyl)ethyl]-5-(N-methylsulfinamidino)-2-(S)-[4-[N-(pyridin-2-ylmethyl)aminomethyl]benzoyl]aminopentanoylamide]
EC50 [1]: 46.1 nM
Dead mice/test mice (ICR mice (male)): 0/5
